“Also recorded” adds a separate entry of the source.
Experiments:
[1] = system: Listeria monocytogenes, Staphylococcus aureus, Bacillus cereus, Pseudomonas aeruginosa, Escherichia coil; assay: Validation of flow cytometry counts versus Petrifilm CFU in raw milk spiked with gram positive and gram negative bacteria; format: cell-based; conditions: raw milk with individual bacterial cultures
Excerpt: A selection of gram negative and gram positive bacteria were chosen to be placed into raw milk and processed and analyzed following the GelGreen™ raw milk treatment staining protocol as disclosed in example 2. The gram positive organisms selected were Listeria monocytogenes (Lm), Staphylococcus aureus (Sa), and Bacillus cereus (Bc). The gram negative organisms selected were Pseudomonas aeruginosa (Pa) and Escherichia coil (Ec). Different concentrations of each culture were placed into a sample of raw milk and kept at 4° C. until processed. Each sample of raw milk with an individual bacterial culture was processed and analyzed following the GelGreen™ protocol as described in example 2. Each sample of raw milk with an individual bacterial culture was appropriately diluted in Butterfield's PBS and 1 mL was plated on Petrifilms in duplicate and CFU/mL were obtained. The resulting Log FCM counts per mL were plotted against the Log Petrifilm CFU per mL.

E. coli [2] = assay: Staining E. coli culture with different nucleic acid dyes, flow cytometer counts (FL1FL2 region); format: cell-based, Escherichia coli
Description: First, an experiment was performed to confirm that bacterial counts obtained on the flow cytometer using GelGreen™ did correlate with traditional plate counts. For this, the Petrifilm method was selected (Standard Methods for Examination of Dairy Products 17th Edition 2004. Edited by H. M. Wehr and J. R. Frank. American Public Health Association, 800 I Street, NW, Washington D.C. 200001. Chapter 6.040), rather than a poured agar plate method, because of ease of use. Escherichia coil (E. coli) cultures were grown at 36° C. in Trypticase Soy Broth (TSB) in a culture tube. A staining composition was prepared as follows: The nucleic acid dye GelGreen™ (from Biotium) was diluted to 1× from the 10,000× commercially available stock, into Tris-buffered saline (100 mM Trizma base, 100 mM Trizma HCl, 150 mM NaCl, pH 8.5), which was preheated to 50° C. The used dilution of 1:10,000 of the GelGreen™ is in accordance with the manufacturer's recommendation for using GelGreen™ for the purpose it was intended for, namely staining DNA in an agarose gel. This is the dilution of GelGreen™ used in all the examples herein. The E. coli culture was removed from the 36° C. incubator and a small volume was diluted 1:100 into the preheated staining composition and incubated for approximately 4.5 min at 50° C. The stained E. coli was analyzed on the flow cytometer and the FL1 (Bandpass 531 nm (519-551)) and FL2 (Long pass >550 nm) fluorescence channels were used to identify the stained bacteria (FIGS. 1A and 1C). A rectangular region was defined around the positively stained cells identified as live cells in the FL1 versus FL2 2-dimensional correlation plot (FIG. 1B). A count per mL of the E. coli was obtained from the flow cytometry analysis. The E. coli culture was then diluted in TSB to obtain 3 different concentrations (1:10, 1:100 and 1:1000, respectively). The E. coli cultures were kept at 4° C. to minimize further growth until analysis. Each dilution of E. coli was stained with the GelGreen™ reagent, analyzed on the flow cytometer and counts for each dilution were obtained. Each E. coli culture was also appropriately diluted in Butterfield's PBS and 1 mL of the appropriately diluted culture was plated on Petrifilms in duplicate. The Petrifilms were placed in a 30° C. incubator, removed after 48 hrs and the colonies on each Petrifilm were counted using an automated colony counter. An average CFU/mL for each E. coli dilution was obtained. The Log of the flow cytometer bacterial counts using GelGreen™ was plotted versus the Log CFU counts from the Petrifilm (FIG. 2).
To show where the bacteria in the FL1 and FL2 signal plots can be expected, bacteria were first counted in the staining composition without adding any milk. A culture of E. coli were grown at 36° C. in Trypticase Soy Broth (TSB) in a culture tube. The nucleic acid dye GelGreen™ was diluted into Tris-buffered saline, at approximately pH 8.5, which was preheated to 50° C. The E. coli culture was removed from the 36° C. incubator and a small volume was diluted 1:100 into the preheated staining composition and incubated for approximately 4.5 min at 50° C. The stained E. coli was analyzed on the flow cytometer and the FL1 and FL2 fluorescence channels were used to identify the stained bacteria (FIG. 3A).
A culture of E. coli was grown at 36° C. in Trypticase Soy Broth (TSB), stained with GelGreen™ and counted on the flow cytometer (FIG. 5) as described in example 2. The E. coli culture was then kept at 4° C. until stained with other nucleic acid dyes. The nucleic acid dyes TOTO®-1 and SYBR® Safe (both from Thermo Fisher Scientific) were selected as alternatives. […] Both dyes have similar spectral properties to GelGreen™ and were diluted in Tris-buffered saline using the same dilution factor as GelGreen™. […]

bacteria in raw milk = assay: IBC in raw milk samples at different pH settings, flow cytometer; format: cell-based
E. coli [3] = assay: Staining E. coli in spiked raw milk and saline at different temperatures, flow cytometry; format: cell-based, Escherichia coli; conditions: around 60° C. versus lower temperatures (40, 35, 25, 23° C.), 1 minute, pH 10.6
Description: Both solutions were spiked with E. coli bacteria by adding 200 μl bacterial culture to 45 ml solution. The staining composition was prepared with the same dilution of GelGreen™ (from Biotium) as described in Example 1, but this time into a Tris-saline solution (200 mM Trizma base, 150 mM NaCl, pH 10.6) further comprising 0.12 AU/ml liquid Alcalase® 2.4 L FG (from Novozymes). Incubations were as described in the previous examples, except that spiked raw milk samples were incubated at 60, 40 and 23° C. and spiked saline samples were incubated at 60, 35 and 25° C. for 1 minute. […] Each panel contains four quarters: Q1, Q2, Q3 and Q4. The counts provided in Q4 represent the number of cells given in each of these four quarters. […] The optimal range as disclosed herein is 40 to 70° C., a further preferred range is 60 to 68° C. and a highly preferred temperature point is 62° C.

## CN(C)c1ccc2cc3ccc(N(C)C)cc3[n+](CCCCCC(=O)NCCCOCCOCCOCCCNC(=O)CCCCC[n+]3c4cc(N(C)C)ccc4cc4ccc(N(C)C)cc43)c2c1.[I-].[I-] [GelGreen™]
[1]
  relationship of Log FCM counts per mL versus Log Petrifilm CFU per mL: overall linear relationship
E. coli [2]; NaCl solution (saline), 50° C.
  staining of E. coli: minimal staining
E. coli [2]; NaCl solution (saline), room temperature (23° C.)
  staining of E. coli: does not stain E. coli; also recorded: did not stain bacterial cells
E. coli [2]; Tris-buffered saline pH 8.5, 50° C., approximately 4.5 min
  staining of E. coli: stains essentially all bacterial cells
E. coli [2]; Tris-buffered saline pH 8.5, room temperature (23° C.)
  staining of E. coli: does not stain E. coli; also recorded: did not stain bacterial cells
Bacteria in raw milk; pH 7.0, fresh milk
  IBC higher compared to the reference method (pH 10.6): more than 1.5 million counts per ml
Bacteria in raw milk; pH 8.7
  IBC compared to the reference method (pH 10.6): comparable with the reference method
E. coli [3]
  bacterial cells counted: more bacterial cells could be counted

— US11415493B2, “Detection of cells in a liquid sample” (DELTA INSTRUMENTS B.V., priority 2016, dated 2022)
